Experimental data as given in patent US20170008928A1, “NOVEL PEPTIDES AND PEPTIDE DERIVATIVES AND USES THEREOF” (Novo Nordisk A/S, priority 2015, published 2017).
Where two headings read alike, the source gives them in different places. Starred links: 1 amine or outer side, 2 acyl side, 3 side chain; linkers in the order of their positions; H or OH if unused. Non-standard residues stand in square brackets, D forms with d. Residues, ends and D or L forms follow the SMILES beside them. *: point of attachment. Phe(4-CH2SO3H) = N[C@@H](Cc1ccc(CS(=O)(=O)O)cc1)C(=O)O; sY = N[C@@H](Cc1ccc(OS(=O)(=O)O)cc1)C(=O)O; C18 diacid = O=C(O)CCCCCCCCCCCCCCCCC(=O)*; γGlu = O=C(O)[C@H](CCC(=O)[*:2])N[*:1]; 1Nal = N[C@@H](Cc1cccc2ccccc12)C(=O)O; NMeF = CN[C@@H](Cc1ccccc1)C(=O)O; dNMeD = CN[C@H](CC(=O)O)C(=O)O; Nle = CCCC[C@H](N)C(=O)O; AEEA = NCCOCCOCC(=O)O

Legend:
[1] = target: T1, human cholecystokinin-1 receptor (CCK-1R) (Homo sapiens, UniProt P32238); assay: In vitro receptor binding to CCK-1R, SPA displacement of [125I]-CCK-8s from plasma membranes
T1 construct: host or cells: 1321-N1 cells
T1 sequence (P32238 1-428): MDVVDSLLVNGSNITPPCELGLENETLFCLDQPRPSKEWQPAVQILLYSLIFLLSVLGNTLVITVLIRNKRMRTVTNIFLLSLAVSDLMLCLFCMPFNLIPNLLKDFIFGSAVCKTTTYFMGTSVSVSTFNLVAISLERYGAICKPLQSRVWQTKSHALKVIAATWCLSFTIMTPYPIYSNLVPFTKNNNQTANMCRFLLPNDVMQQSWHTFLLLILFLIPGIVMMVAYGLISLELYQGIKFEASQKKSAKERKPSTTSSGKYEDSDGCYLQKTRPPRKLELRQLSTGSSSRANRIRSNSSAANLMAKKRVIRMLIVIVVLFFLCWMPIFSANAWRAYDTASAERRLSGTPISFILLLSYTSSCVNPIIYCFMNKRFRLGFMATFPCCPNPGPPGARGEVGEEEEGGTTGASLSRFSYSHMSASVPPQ

[2] = Chemical stability compared to CCK-8s, 8 mM phosphate pH 7.4, RP-UHPLC; type: physicochemical; conditions: after two weeks at 37° C.
Procedure: The resulting samples were stored in HPLC vials at 5° C. and 37° C. for 2 weeks. The samples were analysed in the beginning of the experiment (t=0), after one week and after two weeks by RP-UHPLC with a mobile phase containing phosphate and with a gradient of acetonitrile. UV detection at 215 nm was used. Samples after one week and two weeks were analysed twice. The calculations were done as described above, and the results are summarised in Table 7 (average of two determinations).

[3] = Chemical stability in 50 mM phosphate buffer pH 7.4, RP-UPLC; type: physicochemical
Procedure: The purpose of this assay is to assess the chemical stability of the derivatives of the invention in aqueous solutions. The chemical stability was investigated by RP-UPLC separation and UV detection.
Lyophilised samples of the derivative of Example 3 were dissolved in a 50 mM sodium phosphate buffer pH 7.4 containing 70 mM NaCl and 0.05 v/v % polysorbate 80, at a concentration of 1 mg/ml of the derivative (for the Example 3 derivative 1 mg/ml equates 0.54 mM). If necessary, pH was adjusted to 7.4. […]
RP-UPLC analysis was performed using a Waters Acquity system with the following parameters:
The following UPLC gradient was used: […]
Purity of a compound is defined as the area percentage of the compound peak in relation to the total area of all integrated peaks in the chromatogram and is calculated by the software of the apparatus. Absolute purity loss (in percentage points, pp) is determined as the difference in purity between the start sample and the sample incubated for a certain time at a certain temperature. Relative purity loss (in %) is the ratio of absolute purity loss to the purity determined in the start sample.

[4] = displacement of [125I]-CCK-8s, plasma membranes of 1321-N1 cells expressing CCK-1R, read-out: IC50 (CCK-1R)

Row | IC50 [1, 4] | CCK-1R binding selectivity (IC50 (CCK-2R)/IC50 (CCK-1R)) ([1]; ratio of binding IC50 values, >1 = preference for CCK-1R) | SMILES | IC50 [1] | stability higher than the stability of CCK-8s [2] | chemical stability, overall ([3]; all three temperatures tested (5, 25, 37° C.), up to at least 6 weeks) | short term chemical stability ([3]; same buffer, 25° C., three days, 25 μM, 100 μM and 500 μM)
1 | 0.13 nM |  | CCCC[C@H](NC(=O)[C@H](Cc1ccc(OS(=O)(=O)O)cc1)NC(=O)[C@H](CC(=O)O)NC(=O)COCCOCCNC(=O)COCCOCCNC(=O)CC[C@H](NC(=O)CCCCCCCCCCCCCCCCC(=O)O)C(=O)O)C(=O)NCC(=O)N[C@@H](Cc1c[nH]c2ccccc12)C(=O)N[C@@H](CCCC)C(=O)N(C)[C@H](CC(=O)O)C(=O)N[C@@H](Cc1cccc2ccccc12)C(N)=O [Example 2, 2-[2-[2-[[2-[2-[2-[[(4S)-4-Carboxy-4-(17-carboxyheptadecanoylamino)butanoyl]amino]ethoxy]ethoxy]acetyl]amino]ethoxy]ethoxy]acetyl-Asp-sTyr-Nle-Gly-Trp-Nle-DMeAsp-1Nal-amide] ({C18 diacid-γGlu-AEEA-AEEA}-D[sY][Nle]GW[Nle][dNMeD][1Nal]-NH2) |  |  |  | 
2 |  |  | CCCC[C@H](NC(=O)[C@H](Cc1ccc(CS(=O)(=O)O)cc1)NC(=O)[C@H](CC(=O)O)NC(=O)COCCOCCNC(=O)COCCOCCNC(=O)CC[C@H](NC(=O)CCCCCCCCCCCCCCCCC(=O)O)C(=O)O)C(=O)NCC(=O)N[C@@H](Cc1c[nH]c2ccccc12)C(=O)N[C@@H](CCCC)C(=O)N(C)[C@H](CC(=O)O)C(=O)N(C)[C@@H](Cc1ccccc1)C(N)=O [Example 3, 2-[2-[2-[[2-[2-[2-[[(4S)-4-Carboxy-4-(17-carboxyheptadecanoylamino)butanoyl]amino]ethoxy]ethoxy]acetyl]amino]ethoxy]ethoxy]acetyl-Asp-Phe(4-sulfomethyl)-Nle-Gly-Trp-Nle-DMeAsp-MePhe-amide] ({C18 diacid-γGlu-AEEA-AEEA}-D[Phe(4-CH2SO3H)][Nle]GW[Nle][dNMeD][NMeF]-NH2) | 0.26 nM | about 50% | very stable | virtually no degradation
3 | 0.072 nM | 5100 | CCCC[C@H](NC(=O)[C@H](Cc1c[nH]c2ccccc12)NC(=O)CNC(=O)[C@H](CC(C)C)NC(=O)[C@H](Cc1ccc(OS(=O)(=O)O)cc1)NC(=O)[C@H](CC(=O)O)NC(=O)[C@H](CO)NC(=O)[C@H](CO)NC(=O)CNC(=O)[C@H](CO)NC(=O)[C@H](CO)NC(=O)CNC(=O)CCCCCCCCCCCCCCCCC(=O)O)C(=O)N(C)[C@H](CC(=O)O)C(=O)N(C)[C@@H](Cc1ccccc1)C(N)=O [Example 29, 17-Carboxyheptadecanoyl-Gly-Ser-Ser-Gly-Ser-Ser-Asp-sTyr-Leu-Gly-Trp-Nle-DMeAsp-MePhe-amide] ({C18 diacid}-GSSGSSD[sY]LGW[Nle][dNMeD][NMeF]-NH2) |  |  |  | 
